The values below come from article PMC5698704 (Chemmedchem, 2017).

For one data set, the system named is CDK2/CycE. The data set is described as follows: CDK2/CycE kinase assay. Type of data set: biochemical, human. As to conditions: ratio of IC50 values CDK2/CDK9, in-house assays.
Another data set deals with HeLa cells. The data set is described as follows: Proliferation assay HeLa. It counts as cell-based. As to conditions: Homo sapiens, 96 h, read-out: HeLa IC50.
In another data set the test system is MOLM‐13 cells. The data set is described as follows: Proliferation assay MOLM‐13. Type of data set: cell-based. As to conditions: Homo sapiens, MOLM-13, 96 h, read-out: MOLM‐13 IC50.
A short description of data set [1]: Caco‐2 permeability assay. It counts as in vitro ADME. Particulars: human, Caco-2, pH 7.2. (Passage across Caco-2 layers is used to estimate intestinal permeability.)
A further data set relates to rat hepatocytes. The data set is described as follows: Metabolic stability in rat hepatocytes. Type of data set: in vitro ADME. As to conditions: predicted blood clearance from rat hepatocytes, 1 μM.
Data set [2] is described as follows: Metabolic stability in rat liver microsomes. Type of data set: in vitro ADME. Particulars: predicted blood clearance from rat liver microsomes.
Data set [3] is described as follows: Blood/plasma partitioning in rats. Particulars: rat, blood and plasma. It counts as in vitro ADME.
Data set [4] relates to CYP1A2, CYP2C8, CYP2C9, CYP2D6, CYP3A4. The data set is described as follows: CYP inhibition in human liver microsomes. Type of data set: in vitro ADME. (Microsomes from liver hold many membrane-bound enzymes, among them those of drug oxidation.)
For a further data set, the system named is CYP3A4. The data set is described as follows: CYP induction in cultured human hepatocytes. Type of data set: in vitro ADME.
For a further data set, the target named is CDK1/cyclinB(h) (Homo sapiens, UniProt P06493). The data set is described as follows: Merck Millipore KinaseProfiler. Type of data set: biochemical. Particulars: IC50 CDK1/CycB(h), Millipore panel, 10 µM ATP.
Chain of CDK1/cyclinB(h) (P14635 whole entry): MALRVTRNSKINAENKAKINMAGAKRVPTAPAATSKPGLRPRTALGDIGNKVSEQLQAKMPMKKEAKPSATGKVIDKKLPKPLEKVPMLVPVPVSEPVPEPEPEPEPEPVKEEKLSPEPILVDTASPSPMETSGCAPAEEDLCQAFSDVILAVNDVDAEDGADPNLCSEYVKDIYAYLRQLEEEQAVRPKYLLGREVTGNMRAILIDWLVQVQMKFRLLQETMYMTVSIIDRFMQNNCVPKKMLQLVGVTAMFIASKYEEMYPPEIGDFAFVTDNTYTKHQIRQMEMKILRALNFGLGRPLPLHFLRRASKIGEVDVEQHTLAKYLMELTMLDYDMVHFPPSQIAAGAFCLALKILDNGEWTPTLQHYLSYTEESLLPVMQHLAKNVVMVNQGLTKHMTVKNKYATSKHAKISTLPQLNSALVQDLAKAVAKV
Chain of CDK1/cyclinB(h) (P06493 whole entry): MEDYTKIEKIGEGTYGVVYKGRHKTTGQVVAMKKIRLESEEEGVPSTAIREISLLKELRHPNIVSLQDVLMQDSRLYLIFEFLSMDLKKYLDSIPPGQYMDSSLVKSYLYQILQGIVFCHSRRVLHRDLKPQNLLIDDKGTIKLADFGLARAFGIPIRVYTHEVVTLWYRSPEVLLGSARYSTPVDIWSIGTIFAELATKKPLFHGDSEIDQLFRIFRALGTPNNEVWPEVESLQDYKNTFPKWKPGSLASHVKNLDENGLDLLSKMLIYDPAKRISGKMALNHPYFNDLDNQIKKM
Another data set has as its target CDK2/cyclinE(h) (Homo sapiens, UniProt P24941). The data set is described as follows: Merck Millipore KinaseProfiler. It counts as biochemical. Particulars: IC50 CDK2/CycE(h), Millipore panel, 10 µM ATP.
A further data set concerns the target CDK3/cyclinE(h) (Homo sapiens, UniProt Q00526). The data set is described as follows: Merck Millipore KinaseProfiler. Particulars: IC50 CDK3/CycE(h), Millipore panel, 10 µM ATP. It counts as biochemical.
The target in the next data set is CDK5/p35(h) (Homo sapiens, UniProt Q00535). The data set is described as follows: Merck Millipore KinaseProfiler. It counts as biochemical. As to conditions: Millipore panel, 10 µM ATP.
Chain of CDK5/p35(h) (Q00535 whole entry): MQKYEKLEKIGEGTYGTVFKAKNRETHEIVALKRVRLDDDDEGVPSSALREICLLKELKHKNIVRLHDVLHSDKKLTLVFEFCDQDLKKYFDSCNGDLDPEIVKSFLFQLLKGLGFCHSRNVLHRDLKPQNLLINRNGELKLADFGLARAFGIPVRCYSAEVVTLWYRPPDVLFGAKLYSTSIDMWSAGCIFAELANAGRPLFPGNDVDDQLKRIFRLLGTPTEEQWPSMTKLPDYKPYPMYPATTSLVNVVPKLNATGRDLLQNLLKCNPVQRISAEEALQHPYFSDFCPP
Chain of CDK5/p35(h) (Q15078 whole entry partner): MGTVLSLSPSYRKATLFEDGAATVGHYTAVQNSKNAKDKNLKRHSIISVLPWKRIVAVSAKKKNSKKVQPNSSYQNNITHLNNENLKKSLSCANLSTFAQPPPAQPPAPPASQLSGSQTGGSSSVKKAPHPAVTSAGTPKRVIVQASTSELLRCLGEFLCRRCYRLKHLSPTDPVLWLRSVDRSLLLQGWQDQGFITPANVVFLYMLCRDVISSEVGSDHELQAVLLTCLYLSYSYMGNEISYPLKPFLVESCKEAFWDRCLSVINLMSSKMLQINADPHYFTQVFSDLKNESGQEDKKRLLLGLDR
In the next data set the target is CDK6/cyclinD3(h) (Homo sapiens, UniProt Q00534). The data set is described as follows: Merck Millipore KinaseProfiler. It counts as biochemical.
Chain of CDK6/cyclinD3(h) (Q00534 whole entry): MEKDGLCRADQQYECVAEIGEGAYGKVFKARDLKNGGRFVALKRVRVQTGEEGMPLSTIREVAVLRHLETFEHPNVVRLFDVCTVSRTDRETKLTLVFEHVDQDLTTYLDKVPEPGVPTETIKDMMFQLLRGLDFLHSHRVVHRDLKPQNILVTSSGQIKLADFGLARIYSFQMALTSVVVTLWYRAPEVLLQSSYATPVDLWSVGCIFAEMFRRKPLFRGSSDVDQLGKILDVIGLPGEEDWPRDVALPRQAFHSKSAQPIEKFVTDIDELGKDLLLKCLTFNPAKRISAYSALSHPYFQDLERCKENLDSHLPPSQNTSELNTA
Chain of CDK6/cyclinD3(h) (P30281 whole entry partner): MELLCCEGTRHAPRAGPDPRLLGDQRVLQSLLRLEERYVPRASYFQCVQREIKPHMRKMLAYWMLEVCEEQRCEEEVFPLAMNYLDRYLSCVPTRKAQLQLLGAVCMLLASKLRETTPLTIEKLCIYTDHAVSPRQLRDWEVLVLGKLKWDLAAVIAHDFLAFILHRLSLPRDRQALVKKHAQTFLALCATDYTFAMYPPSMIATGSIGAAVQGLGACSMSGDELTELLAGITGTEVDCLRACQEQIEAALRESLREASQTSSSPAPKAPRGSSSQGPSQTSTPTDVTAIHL
In a further data set the target is CDK7/cyclinH/MAT1(h) (Homo sapiens, UniProt P50613). The data set is described as follows: Merck Millipore KinaseProfiler. It counts as biochemical.
Chain of CDK7/cyclinH/MAT1(h) (P50613 whole entry): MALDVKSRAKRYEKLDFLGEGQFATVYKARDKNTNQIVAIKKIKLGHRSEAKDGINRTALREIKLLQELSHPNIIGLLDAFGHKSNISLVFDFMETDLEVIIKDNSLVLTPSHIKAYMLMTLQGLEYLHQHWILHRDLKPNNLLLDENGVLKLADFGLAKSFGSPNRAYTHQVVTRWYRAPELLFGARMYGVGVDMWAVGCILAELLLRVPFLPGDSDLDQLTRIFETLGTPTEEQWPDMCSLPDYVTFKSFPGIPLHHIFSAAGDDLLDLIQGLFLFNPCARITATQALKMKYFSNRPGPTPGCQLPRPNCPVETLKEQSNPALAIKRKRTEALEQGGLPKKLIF
Chain of CDK7/cyclinH/MAT1(h) (P51946 whole entry partner): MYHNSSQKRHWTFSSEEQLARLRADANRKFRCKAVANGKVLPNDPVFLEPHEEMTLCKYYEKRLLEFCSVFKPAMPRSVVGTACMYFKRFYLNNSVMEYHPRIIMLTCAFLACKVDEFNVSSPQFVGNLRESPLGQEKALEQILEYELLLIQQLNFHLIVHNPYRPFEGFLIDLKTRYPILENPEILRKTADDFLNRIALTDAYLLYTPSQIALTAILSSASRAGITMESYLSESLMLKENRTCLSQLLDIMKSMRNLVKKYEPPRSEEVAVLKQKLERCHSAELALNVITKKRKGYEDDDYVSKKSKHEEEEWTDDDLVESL
Chain of CDK7/cyclinH/MAT1(h) (P51948 whole entry partner): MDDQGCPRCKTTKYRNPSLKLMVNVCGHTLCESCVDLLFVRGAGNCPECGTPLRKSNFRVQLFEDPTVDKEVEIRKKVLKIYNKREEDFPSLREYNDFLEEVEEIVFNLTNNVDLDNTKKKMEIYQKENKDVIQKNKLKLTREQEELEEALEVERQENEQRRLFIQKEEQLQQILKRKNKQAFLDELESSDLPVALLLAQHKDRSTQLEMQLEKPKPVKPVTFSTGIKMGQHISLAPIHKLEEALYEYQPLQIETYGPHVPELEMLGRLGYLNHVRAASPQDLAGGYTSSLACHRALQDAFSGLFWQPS
Another data set addresses CDK9/cyclin T1(h) (Homo sapiens, UniProt P50750). The data set is described as follows: Merck Millipore KinaseProfiler. Type of data set: biochemical.
Another data set deals with MV4‐11 cells. The data set is described as follows: Antiproliferative activity MV4‐11. Type of data set: cell-based. Particulars: Homo sapiens, MV4-11, read-out: MV4‐11 IC50.
The nature of data set [5]: Equilibrium shake flask solubility assay. Particulars: aqueous solubility, phosphate buffer pH 6.5, 24 h; solid state not characterized. Type of data set: physicochemical.
The next data set concerns MOLM‐13 human AML model. The data set is described as follows: MOLM‐13 human AML xenograft model in mice. It counts as in vivo, mouse. As to conditions: throughout the study, all BAY 1143572 regimens. In general terms: A xenograft is tissue or cells of one species grown in another, often human tumour cells in immunodeficient mice.
Data set [6] is described as follows: MV4‐11 human AML xenograft model in rats. It counts as in vivo, rat. Particulars: female, athymic nude, rat, in vivo, po, 12 mg kg^−1.
For the next data set, the system named is MV4‐11 human AML model. The data set is described as follows: MV4‐11 human AML xenograft model in rats. Type of data set: in vivo, rat.
A further data set addresses T1, Flt3(h) (Homo sapiens, UniProt P36888).
T1 sequence (P36888 27-993): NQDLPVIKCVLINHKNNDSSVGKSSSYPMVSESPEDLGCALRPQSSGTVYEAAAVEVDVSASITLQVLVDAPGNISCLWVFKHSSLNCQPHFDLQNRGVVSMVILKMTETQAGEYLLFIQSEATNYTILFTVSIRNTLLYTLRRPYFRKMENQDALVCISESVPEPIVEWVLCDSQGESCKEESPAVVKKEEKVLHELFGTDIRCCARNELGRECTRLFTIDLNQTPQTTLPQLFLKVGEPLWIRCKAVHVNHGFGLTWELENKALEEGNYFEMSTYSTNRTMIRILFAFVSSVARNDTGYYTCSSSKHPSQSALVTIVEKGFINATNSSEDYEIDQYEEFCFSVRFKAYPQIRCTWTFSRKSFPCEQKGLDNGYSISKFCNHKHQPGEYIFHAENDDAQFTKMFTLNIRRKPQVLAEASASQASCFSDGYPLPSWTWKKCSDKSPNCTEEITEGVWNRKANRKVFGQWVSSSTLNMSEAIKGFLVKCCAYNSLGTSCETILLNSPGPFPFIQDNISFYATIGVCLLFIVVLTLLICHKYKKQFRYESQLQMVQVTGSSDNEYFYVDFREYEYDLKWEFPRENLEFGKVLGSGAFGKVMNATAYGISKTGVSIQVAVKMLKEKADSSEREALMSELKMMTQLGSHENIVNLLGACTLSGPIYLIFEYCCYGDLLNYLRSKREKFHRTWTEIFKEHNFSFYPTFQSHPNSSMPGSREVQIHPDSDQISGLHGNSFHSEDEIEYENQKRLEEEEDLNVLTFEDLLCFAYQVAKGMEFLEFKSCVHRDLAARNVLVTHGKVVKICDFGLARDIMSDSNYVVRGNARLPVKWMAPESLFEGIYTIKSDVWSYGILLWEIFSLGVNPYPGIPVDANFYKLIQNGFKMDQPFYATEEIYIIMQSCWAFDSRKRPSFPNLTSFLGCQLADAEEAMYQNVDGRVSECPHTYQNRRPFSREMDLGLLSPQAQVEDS
The data set is described as follows: Merck Millipore KinaseProfiler. Particulars: Merck Millipore KinaseProfiler panel. It counts as biochemical.

“And” between values parts separate entries of the source, which are not always exact repeats. Equal values may be shown once.

Chain of CDK3/cyclinE(h) (Q00526 whole entry): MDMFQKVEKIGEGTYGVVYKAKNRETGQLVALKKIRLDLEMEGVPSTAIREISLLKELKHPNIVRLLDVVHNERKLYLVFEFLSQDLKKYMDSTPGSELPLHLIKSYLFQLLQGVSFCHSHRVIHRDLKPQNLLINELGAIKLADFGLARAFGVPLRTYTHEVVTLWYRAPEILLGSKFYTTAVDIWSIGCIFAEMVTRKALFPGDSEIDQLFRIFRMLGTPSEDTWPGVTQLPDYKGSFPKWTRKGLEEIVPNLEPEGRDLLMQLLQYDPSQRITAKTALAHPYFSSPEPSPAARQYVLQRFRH
Chain of CDK3/cyclinE(h) (P24864 whole entry, further chain): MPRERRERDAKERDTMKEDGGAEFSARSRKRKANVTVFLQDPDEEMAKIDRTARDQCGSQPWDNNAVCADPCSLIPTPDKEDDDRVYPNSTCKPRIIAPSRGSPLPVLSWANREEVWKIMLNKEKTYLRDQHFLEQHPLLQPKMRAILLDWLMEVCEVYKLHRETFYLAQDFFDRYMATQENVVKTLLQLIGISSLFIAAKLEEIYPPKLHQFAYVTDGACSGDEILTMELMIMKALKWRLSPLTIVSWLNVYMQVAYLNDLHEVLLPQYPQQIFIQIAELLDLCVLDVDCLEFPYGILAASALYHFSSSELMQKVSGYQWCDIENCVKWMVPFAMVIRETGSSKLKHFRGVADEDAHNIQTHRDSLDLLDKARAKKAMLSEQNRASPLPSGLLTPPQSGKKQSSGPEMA
Chain of CDK9/cyclin T1(h) (P50750 whole entry): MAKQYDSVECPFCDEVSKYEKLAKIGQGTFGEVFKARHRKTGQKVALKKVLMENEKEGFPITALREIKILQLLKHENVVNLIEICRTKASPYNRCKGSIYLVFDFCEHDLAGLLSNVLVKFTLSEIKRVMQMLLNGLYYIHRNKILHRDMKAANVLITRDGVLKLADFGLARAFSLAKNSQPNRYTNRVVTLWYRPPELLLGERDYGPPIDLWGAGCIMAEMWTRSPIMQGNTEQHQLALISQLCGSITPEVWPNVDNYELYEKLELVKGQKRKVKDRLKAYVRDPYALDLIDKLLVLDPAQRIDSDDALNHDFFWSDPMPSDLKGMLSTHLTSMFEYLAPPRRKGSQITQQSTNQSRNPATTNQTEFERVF
Chain of CDK9/cyclin T1(h) (O60563 whole entry partner): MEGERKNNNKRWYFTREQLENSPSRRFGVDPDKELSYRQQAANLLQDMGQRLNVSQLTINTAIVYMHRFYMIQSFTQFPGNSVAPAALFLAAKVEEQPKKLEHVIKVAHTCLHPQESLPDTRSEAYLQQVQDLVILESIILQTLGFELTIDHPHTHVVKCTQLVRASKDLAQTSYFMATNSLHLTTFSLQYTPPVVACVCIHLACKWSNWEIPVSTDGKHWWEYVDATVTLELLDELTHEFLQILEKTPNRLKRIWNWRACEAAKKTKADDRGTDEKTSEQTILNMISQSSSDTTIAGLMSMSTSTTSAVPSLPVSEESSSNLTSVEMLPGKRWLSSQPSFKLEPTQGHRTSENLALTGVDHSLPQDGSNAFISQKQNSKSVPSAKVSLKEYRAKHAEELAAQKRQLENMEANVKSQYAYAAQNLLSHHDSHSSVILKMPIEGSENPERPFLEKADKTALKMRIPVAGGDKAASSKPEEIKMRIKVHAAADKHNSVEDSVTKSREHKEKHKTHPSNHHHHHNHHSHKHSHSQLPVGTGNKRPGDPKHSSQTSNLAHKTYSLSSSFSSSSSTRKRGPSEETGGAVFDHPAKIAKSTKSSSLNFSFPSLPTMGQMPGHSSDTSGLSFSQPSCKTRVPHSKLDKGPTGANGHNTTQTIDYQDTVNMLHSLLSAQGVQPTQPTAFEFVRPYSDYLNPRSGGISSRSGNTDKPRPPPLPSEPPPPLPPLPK

As to `COc1cc(F)ccc1-c1ncnc(Nc2cccc(CS(N)(=O)=O)c2)n1` [BAY‐958, 1‐(3‐{[4‐(4‐Fluoro‐2‐methoxyphenyl)‐1,3,5‐triazin‐2‐yl]amino}phenyl)methanesulfonamide], the “Selectivity vs. CDK2, ratio of IC50 values” in the data set with CDK2/CycE came out at 98. Besides, the IC50 was 1 µM with HeLa cells; 0.28 µM with MOLM‐13 cells; greater than 20 µM in data set [4]; 0.69 µM against CDK1/cyclinB(h); 0.47 µM against CDK2/cyclinE(h); 0.57 µM at CDK3/cyclinE(h). The IC50 against CDK5/p35(h) is 0.8 µM; at CDK6/cyclinD3(h) it was 4.4 µM; against CDK7/cyclinH/MAT1(h), greater than 10 µM; at CDK9/cyclin T1(h), 0.005 µM. The efflux ratio at 2 h, 2 μM in data set [1] worked out at 15. The “CLb, ratHep” value in the data set with rat hepatocytes is 0.33 L/h/kg. In addition, the “CLb, ratLM” value in data set [2] is 0.48 L/h/kg. In “Rat PK study in vivo”, the “CLb, rat in vivo, i.v.” value was 0.5 L/h/kg and 0.50 L/h/kg. This compound gave a half-life in “Rat PK study in vivo” (male, Wistar, plasma, iv) of 42 min. The “F, rat in vivo, p.o.” value in “Rat PK study in vivo” (oral bioavailability) was 10%. The blood plasma ratio in data set [3] was 3. Moreover, the “Induction of CYP3A4 in vitro” value in the data set with CYP3A4 is reported as “not observed”. Besides, on CDK9/cyclin T1(h) (Millipore panel, relative to CDK9/CycT1 IC50), the “selectivity vs. other CDKs” value was greater than 90.
Consider `COc1cc(F)ccc1-c1ncnc(Nc2cccc(C[S@](C)(=N)=O)c2)n1` [BAY 1143572, (R)‐4‐(4‐Fluoro‐2‐methoxyphenyl)‐N‐{3‐[(S‐methylsulfonimidoyl)methyl]phenyl}‐1,3,5‐triazin‐2‐amine], for which the IC50 is 0.92 µM in the data set on HeLa cells; 0.31 µM in the data set with MOLM‐13 cells; 0.89 µM in the data set with MV4‐11 cells; greater than 20 µM in data set [4]; 0.89 µM against CDK3/cyclinE(h). The “Sw, pH 6.5” value in [5] turned out to be 479 mg L^−1. In addition, the “CLb, rat in vivo, i.v.” value in the data set “Rat PK study in vivo” was determined as 1.1 L/h/kg. Further, the “Induction of CYP3A4 in vitro” value in the data set with CYP3A4 was “not observed”. Besides, the “mean body weight reduction” value with MOLM‐13 human AML model is “less than 10%”. Moreover, in data set [6], the MTD at 14 days was found to be 12 mg/kg. Also, the tumor response entry with MV4‐11 human AML model (12 mg kg^−1 daily oral for 14 days) is “almost complete tumor remission”. Moreover, the “tumor regrowth at the conclusion of the experiment” value with MV4‐11 human AML model (57 days after initial inoculation, after 12 mg kg^−1 daily for 14 days) is given as “no tumor regrowth in nine of the 12 test animals”. Also, on Flt3(h), the “activity against Flt3” value is listed as “did not show relevant activity”.

The term IC50 denotes the midpoint of a concentration-inhibition curve. By efflux ratio is commonly meant the permeability from basolateral to apical divided by that in the opposite direction, in the common usage. Usually half-life stands for how long it takes for the measured level to halve. Read a high half-life as slow loss.
